From ChEMBL document CHEMBL4382222, “Structural development of non-secosteroidal vitamin D receptor (VDR) ligands without any asymmetric carbon” (Bioorg Med Chem, 2018) come the findings set out here.

The target in one test is T1, Vitamin D3 receptor (Homo sapiens, UniProt P11473).
T1 sequence (P11473 whole entry): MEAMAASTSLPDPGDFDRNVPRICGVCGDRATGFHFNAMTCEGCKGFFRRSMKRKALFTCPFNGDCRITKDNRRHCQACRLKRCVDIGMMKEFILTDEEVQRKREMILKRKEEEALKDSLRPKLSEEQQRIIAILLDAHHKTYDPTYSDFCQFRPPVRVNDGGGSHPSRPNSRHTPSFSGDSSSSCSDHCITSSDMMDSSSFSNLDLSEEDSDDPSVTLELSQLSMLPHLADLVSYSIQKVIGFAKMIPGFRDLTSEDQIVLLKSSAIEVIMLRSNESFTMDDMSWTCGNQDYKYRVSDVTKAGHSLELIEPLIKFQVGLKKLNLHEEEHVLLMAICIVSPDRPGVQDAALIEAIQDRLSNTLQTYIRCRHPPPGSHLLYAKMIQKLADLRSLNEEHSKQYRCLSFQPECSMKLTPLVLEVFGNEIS
The test can be described thus: Agonist activity at human VDR expressed in HOS cells co-expressing human RXR by Dual-Glo luciferase reporter gene assay. The class given is cell-based. Background: A reporter such as luciferase makes a cellular process visible.

Test [1] addresses T2, Vitamin D3 receptor (Homo sapiens) (UniProt P11473).
T2 sequence (whole entry): T1 sequence (P11473 whole entry)
As to the kind of experiment: Agonist activity at human VDR expressed in HOS cells co-expressing human RXR at 0.00001 to 10 uM by Dual-Glo luciferase reporter gene assay relative to 1alpha,25(OH)2D3. Type of test: cell-based.

The term EC50 denotes the concentration that produces a half-maximal response. The Emax is the size of the effect at its maximum, as opposed to the concentration needed.

In turn, `CCC(O)(CC)COc1ccc(C(CC)(CC)c2ccc(OC(CO)CO)c(C)c2)cc1C` yielded an EC50 at Vitamin D3 receptor of 0.0172 µM. Also, the maximum response (Emax) in test [1] is 100%.

Turning to `CCC(CC)(c1ccc(OC[C@@H](O)CO)c(C)c1)c1ccc(OCC(C)(C)O)c(C)c1`, the EC50 on Vitamin D3 receptor was determined as 0.163 µM. The compound also registered an Emax in test [1] of 67%.

As for `CCC(CC)(c1ccc(OCC(CO)CO)c(C)c1)c1ccc(OCC(C)(C)O)c(C)c1`, the EC50 at Vitamin D3 receptor was determined as 0.0765 µM. The same compound displayed an Emax in test [1] of 91%.

In turn, `CCC(CC)(c1ccc(OCCC(C)(C)O)c(C)c1)c1ccc(OCC(CO)CO)c(C)c1` registered an EC50 on Vitamin D3 receptor of 0.0769 µM. The same compound displayed an Emax in test [1] of 91%.

For the compound `CCC(O)(CC)COc1ccc(C(CC)(CC)c2ccc(OCC(CO)CO)c(C)c2)cc1C`, a half-maximal effect on Vitamin D3 receptor (EC50) was put at 0.00926 µM. The compound also came in with an Emax in test [1] of 100%.

For the compound `CCC(CC)(c1ccc(OCCC(C)(C)O)c(C)c1)c1ccc(OC[C@@H](O)CO)c(C)c1`, on Vitamin D3 receptor, the EC50 was 0.0417 µM. In test [1], this compound showed an Emax of 100%.

As to `CCC(O)(CC)COc1ccc(C(CC)(CC)c2ccc(OC[C@@H](O)CO)c(C)c2)cc1C`, at Vitamin D3 receptor, the EC50 is 0.018 µM. The Emax in test [1] was found to be 90%.
